Data: US11578074B2, “Nitrogenous heterocyclic compound, preparation method, intermediate, composition, and application” (SHANGHAI PHARMACEUTICALS HOLDING CO., LTD., priority 2017, dated 2023)
Read-outs that look alike come from different tables or passages of the source.

Tests used:
ErbB2 kinase = target: T1, ErbB2 kinase (Homo sapiens, UniProt P04626); test: EGFR/ErbB2 enzymatic experiment (HTRF kinEASE-TK), ErbB2; assay type: biochemical; conditions: ErbB2 kinase 0.06 ng/μL, ATP 4 μM; read-out: Kinase IC50 (nM) in vitro ErbB2
T1 construct: The final concentration of ErbB2 kinase was 0.06 ng/μL
T1 sequence (P04626 23-1255): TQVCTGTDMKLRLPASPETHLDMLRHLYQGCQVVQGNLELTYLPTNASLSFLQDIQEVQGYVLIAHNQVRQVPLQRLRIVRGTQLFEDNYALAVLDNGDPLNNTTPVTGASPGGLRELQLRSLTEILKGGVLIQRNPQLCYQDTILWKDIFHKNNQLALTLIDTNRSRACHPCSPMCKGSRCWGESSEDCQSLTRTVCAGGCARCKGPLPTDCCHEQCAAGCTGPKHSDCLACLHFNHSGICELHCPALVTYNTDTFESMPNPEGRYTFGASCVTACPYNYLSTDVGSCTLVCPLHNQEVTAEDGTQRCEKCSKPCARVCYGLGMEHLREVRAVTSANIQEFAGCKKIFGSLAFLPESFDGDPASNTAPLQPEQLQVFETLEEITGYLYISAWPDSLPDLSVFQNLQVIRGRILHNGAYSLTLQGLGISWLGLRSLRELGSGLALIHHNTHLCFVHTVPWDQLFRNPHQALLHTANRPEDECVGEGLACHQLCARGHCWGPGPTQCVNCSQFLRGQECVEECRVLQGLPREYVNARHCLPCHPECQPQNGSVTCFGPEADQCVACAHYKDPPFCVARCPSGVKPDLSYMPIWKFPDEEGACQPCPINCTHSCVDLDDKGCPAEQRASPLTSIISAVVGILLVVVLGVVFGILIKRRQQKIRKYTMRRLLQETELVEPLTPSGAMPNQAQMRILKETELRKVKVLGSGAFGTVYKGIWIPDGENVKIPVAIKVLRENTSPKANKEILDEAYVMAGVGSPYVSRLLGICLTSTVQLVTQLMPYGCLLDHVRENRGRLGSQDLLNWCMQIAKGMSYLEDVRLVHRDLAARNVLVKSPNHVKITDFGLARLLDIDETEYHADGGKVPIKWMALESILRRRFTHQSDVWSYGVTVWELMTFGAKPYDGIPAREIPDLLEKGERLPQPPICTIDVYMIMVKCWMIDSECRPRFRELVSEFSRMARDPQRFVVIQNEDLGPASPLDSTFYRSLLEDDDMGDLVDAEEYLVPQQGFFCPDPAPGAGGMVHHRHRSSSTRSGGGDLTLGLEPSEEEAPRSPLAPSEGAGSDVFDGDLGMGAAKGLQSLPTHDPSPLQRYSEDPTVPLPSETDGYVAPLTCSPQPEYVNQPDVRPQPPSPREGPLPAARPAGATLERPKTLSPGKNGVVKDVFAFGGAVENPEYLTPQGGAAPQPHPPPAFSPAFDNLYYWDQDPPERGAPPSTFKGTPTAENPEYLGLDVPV
Experimental: (§1) EGFR/ErbB2 Enzymatic Experiment
(§2) Firstly, 1× reaction buffer required for the kinase was prepared, then 5× Enzymatic buffer (HEPES 20 mM pH 7.0, NaN3 0.1%, BSA 0.05%, sodium orthovanadate 0.5 mM) was diluted in HTRF kinEASE-TK kit by 1 time with deionized water, and 50 nM Supplement Enzymatic buffer (SEB REAGENT), 1 mM MnCl2, 5 mM MfCl2, 1 mM DTT were added. Secondly, 5× compound was prepared, and 10 mM test compound storage solution was diluted in multiple steps with DMSO in a 96-well compound plate to prepare 100× compound as an initial concentration, which was then used as the first concentration to carry out a 3-fold gradient dilution with DMSO to obtain a total of 10 concentrations. Then 1 μL of gradient diluent was added to 19 μL of 1× reaction buffer to prepare 5× compound for later use. Then 2 μL of 5× compound was transferred from the 96-well plate into a 384-well plate. To the compound-free control wells was added 2 μL of the following liquid: 19 μL of 1× reaction buffer with addition of 1 μL of DMSO. To the blank control well was added 2 μL of 250 mM EDTA. […] In the fourth step of reaction termination, HTRF Detection buffer was used to prepare a mixture of 2×TK Antibody-EU (K) and Sa-XL665, and the amount of TK Antibody-EU (K) was 5 μL per well. After the enzyme reaction was carried out for 30 minutes, 10 μL of the above liquid was added to a 384-well plate, and the reaction was carried out at room temperature for 1 hour. […] RFU665 nM and RFU620 nM were measured, and RFU665 nM/RFU620 nM×10000 was used as final data for analysis.

EGFR kinase = EGFR kinase (Homo sapiens, UniProt P00533); test: EGFR/ErbB2 enzymatic experiment (HTRF kinEASE-TK), EGFR; assay type: biochemical; conditions: EGFR kinase 0.06 units/μL, ATP 1.65 μM; read-out: Kinase IC50 (nM) in vitro EGFR
EGFR kinase, sequence (P00533 25-1210): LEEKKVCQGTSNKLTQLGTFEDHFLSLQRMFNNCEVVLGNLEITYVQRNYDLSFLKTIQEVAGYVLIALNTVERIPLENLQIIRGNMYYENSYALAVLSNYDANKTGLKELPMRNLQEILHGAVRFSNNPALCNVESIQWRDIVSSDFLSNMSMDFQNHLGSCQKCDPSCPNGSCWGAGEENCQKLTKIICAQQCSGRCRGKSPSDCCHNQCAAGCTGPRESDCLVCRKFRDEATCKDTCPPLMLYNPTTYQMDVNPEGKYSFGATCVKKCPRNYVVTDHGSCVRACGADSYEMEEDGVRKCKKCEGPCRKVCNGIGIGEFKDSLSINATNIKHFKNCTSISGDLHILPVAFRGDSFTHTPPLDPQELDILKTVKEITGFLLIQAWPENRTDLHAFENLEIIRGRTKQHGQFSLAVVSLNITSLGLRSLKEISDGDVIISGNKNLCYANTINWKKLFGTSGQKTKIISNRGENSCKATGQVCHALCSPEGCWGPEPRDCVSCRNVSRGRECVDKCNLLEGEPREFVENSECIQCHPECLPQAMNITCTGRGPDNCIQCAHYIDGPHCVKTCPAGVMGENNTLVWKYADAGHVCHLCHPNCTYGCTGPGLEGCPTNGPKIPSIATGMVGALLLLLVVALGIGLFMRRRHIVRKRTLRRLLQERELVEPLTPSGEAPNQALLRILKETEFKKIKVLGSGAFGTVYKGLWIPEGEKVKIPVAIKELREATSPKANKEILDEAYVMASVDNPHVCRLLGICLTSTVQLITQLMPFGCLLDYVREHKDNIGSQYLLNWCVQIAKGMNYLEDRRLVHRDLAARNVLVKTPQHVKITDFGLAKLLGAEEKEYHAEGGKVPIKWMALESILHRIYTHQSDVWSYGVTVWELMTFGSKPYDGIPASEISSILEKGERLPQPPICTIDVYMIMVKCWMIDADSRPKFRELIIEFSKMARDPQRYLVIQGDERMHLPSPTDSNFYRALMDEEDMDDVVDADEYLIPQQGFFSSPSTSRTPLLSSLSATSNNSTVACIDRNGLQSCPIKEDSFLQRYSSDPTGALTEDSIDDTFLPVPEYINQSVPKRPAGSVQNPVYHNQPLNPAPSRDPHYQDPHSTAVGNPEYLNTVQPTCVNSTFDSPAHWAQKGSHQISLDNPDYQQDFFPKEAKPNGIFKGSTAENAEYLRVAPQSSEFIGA
Experimental: as §1, §2

[1] = tested on: N87 (human gastric cancer cell NCI-N87); test: In vitro proliferation inhibition assay of cell lines (CellTiter-Glo), N87; assay type: cell-based; conditions: N87 cells, 72 hours
Experimental: (§3) In Vitro Proliferation Inhibition Assay of Cell Lines
(§4) 1. Cell culture and inoculation: on the first day of the experiment, normal cultured cells were taken, and in the exponential growth state, after digestion and dispersion, the cell density was then adjusted to 8.8×10^4 cells/mL for BT-474, and 6.6×10^4 cells/mL for N87, and 90 μL of which were inoculated to each well of a 96-well cell culture plate; after the inoculation was completed, the microplate was cultured under the conditions of 37° C. and 5% CO2 overnight. 2. Dosing to the cells: on the second day of the experiment, the microplate was taken out from the incubator, and 10 μL of 10× compound was added to each well of the microplate, setting 2 duplicate wells for each drug concentration and 9 dosing concentrations for each compound. According to different cell lines, the initial concentration of each compound was different. Upon completion of addition, the microplate was placed under the conditions of 37° C. and 5% CO2 for 72 hours. 3. Data acquisition: the microplate was taken out from the incubator and was allowed to equilibrate at room temperature for 30 minutes. 100 μL of CellTiter-Glo® Luminescent Cell Viability Assay reaction solution which had been equilibrated at room temperature was added to each well, and the reaction solution was shaken at 1300 rpm for 2 minutes at room temperature. After that, the microplate was placed in HERAEUS Multifuge X1R centrifuge, centrifuged at 2000 rpm for 1 minute, and allowed to equilibrate at room temperature for 10 minutes. The fluorescence signal value was measured on EnVision™.

[2] = tested on: BT-474 (human breast cancer cell); test: In vitro proliferation inhibition assay of cell lines (CellTiter-Glo), BT-474; assay type: cell-based; conditions: BT-474 cells, 72 hours
Experimental: as §3
as §4, with “Cell culture and inoculation: on the first day of the experiment, normal cultured cells were taken, and in the exponential growth state, after digestion and dispersion, the cell density was then adjusted to 8.8×10^4 cells/mL for BT-474, and 6.6×10^4 cells/mL for N87, and 90 μL of which were inoculated to each well of a 96-well cell culture plate; after the inoculation was completed, the microplate was cultured under the conditions of 37° C. and 5% CO2 overnight.” left out

CYP3A4 = target: T2, CYP3A4 (Homo sapiens, UniProt P08684); test: Direct inhibition (DI) of CYP3A4 in human liver microsomes; assay type: in vitro ADME; conditions: human liver microsomes 0.2 mg/mL, 10 μM compound
T2 construct: A system of 100 μL human liver microsomes; from tissue; host or cells: human liver microsomes
T2 sequence (P08684 whole entry): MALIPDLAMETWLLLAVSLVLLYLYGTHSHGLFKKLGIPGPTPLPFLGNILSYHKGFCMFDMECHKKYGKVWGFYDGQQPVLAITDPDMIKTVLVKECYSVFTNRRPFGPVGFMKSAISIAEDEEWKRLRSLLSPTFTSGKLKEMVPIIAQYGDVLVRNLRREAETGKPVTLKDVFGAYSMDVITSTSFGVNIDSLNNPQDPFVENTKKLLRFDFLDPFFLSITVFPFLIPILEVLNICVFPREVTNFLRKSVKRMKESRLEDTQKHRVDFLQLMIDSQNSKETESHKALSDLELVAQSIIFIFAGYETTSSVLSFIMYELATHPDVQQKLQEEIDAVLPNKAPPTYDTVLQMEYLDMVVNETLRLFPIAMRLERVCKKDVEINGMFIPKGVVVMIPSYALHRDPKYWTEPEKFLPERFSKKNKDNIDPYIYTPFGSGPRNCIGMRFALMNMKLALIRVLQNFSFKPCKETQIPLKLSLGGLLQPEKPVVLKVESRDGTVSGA
Experimental: (§5) Study on Direct Inhibition (DI) of CYP3A4, CYP2D6, CYP2C9, CYP2C19, CYP1A2
(§6) A system of 100 μL human liver microsomes (final concentration: 0.2 mg/mL) was used for direct inhibition under warm incubation. The system contained NADPH (final concentration: 1 mM), 10 μM compound, a positive inhibitor cocktail (Ketoconazole 10 μM, Quinidine: 10 μM, Sulfaphenazole: 100 μM, Naphthoflavone: 10 μM, Tranylcypromene 1000 μM), a negative control 10 μM DMSO and mixed probe substrates (Midazolam 10 μM, Testosterone 100 μM, Dextromethophan 10 μM, Diclofenac 20 μM, Phenetin 100 μM, Mephenytoin 100 μM). The reaction was terminated after incubation for 20 minutes. The relative activity of the enzymes was calculated by measuring the relative production of metabolites.

CYP2D6 = target: T3, CYP2D6 (Homo sapiens, UniProt P10635); test: Direct inhibition (DI) of CYP2D6 in human liver microsomes; assay type: in vitro ADME; conditions: probe Dextromethorphan, human liver microsomes 0.2 mg/mL, 10 μM compound, read-out: Direct inhibition (DI) 2D6 (Dextromethorphan)
T3 construct: A system of 100 μL human liver microsomes; from tissue; host or cells: human liver microsomes
T3 sequence (P10635 whole entry): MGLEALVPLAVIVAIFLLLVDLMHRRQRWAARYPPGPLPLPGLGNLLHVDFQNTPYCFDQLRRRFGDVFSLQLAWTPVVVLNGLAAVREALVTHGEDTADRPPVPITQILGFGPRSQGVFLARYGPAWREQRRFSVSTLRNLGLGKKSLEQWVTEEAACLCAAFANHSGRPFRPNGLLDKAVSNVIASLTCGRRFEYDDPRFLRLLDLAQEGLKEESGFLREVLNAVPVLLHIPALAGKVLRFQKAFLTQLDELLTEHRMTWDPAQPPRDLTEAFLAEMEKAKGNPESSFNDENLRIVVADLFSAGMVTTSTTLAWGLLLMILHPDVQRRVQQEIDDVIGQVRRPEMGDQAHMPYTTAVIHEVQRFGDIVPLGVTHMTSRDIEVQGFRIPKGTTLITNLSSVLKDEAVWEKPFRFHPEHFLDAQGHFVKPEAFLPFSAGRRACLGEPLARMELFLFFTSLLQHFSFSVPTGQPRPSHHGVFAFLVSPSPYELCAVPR
Experimental: as §5, §6

CYP2C9 = target: T4, CYP2C9 (Homo sapiens, UniProt P11712); test: Direct inhibition (DI) of CYP2C9 in human liver microsomes; assay type: in vitro ADME; conditions: probe Diclofenac, human liver microsomes 0.2 mg/mL, 10 μM compound, read-out: Direct inhibition (DI) 2C9 (Diclofenac)
T4 construct: A system of 100 μL human liver microsomes; from tissue; host or cells: human liver microsomes
T4 sequence (P11712 whole entry): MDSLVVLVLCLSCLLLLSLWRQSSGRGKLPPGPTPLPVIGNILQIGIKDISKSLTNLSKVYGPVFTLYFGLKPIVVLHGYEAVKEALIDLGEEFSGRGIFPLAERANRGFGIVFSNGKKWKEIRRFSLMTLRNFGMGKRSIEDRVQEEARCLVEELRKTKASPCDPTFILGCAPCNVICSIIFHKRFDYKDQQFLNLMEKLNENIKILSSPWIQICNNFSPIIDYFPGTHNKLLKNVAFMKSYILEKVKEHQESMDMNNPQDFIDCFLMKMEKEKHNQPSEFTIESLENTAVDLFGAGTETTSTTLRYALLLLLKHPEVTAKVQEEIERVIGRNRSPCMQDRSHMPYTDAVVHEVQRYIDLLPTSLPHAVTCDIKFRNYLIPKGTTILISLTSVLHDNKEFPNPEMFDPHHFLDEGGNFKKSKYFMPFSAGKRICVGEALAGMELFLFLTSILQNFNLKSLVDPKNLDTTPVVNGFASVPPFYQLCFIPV
Experimental: as §5, §6

CYP1A2 = target: T5, CYP1A2 (Homo sapiens, UniProt P05177); test: Direct inhibition (DI) of CYP1A2 in human liver microsomes; assay type: in vitro ADME; conditions: probe Phenacetin, human liver microsomes 0.2 mg/mL, 10 μM compound, read-out: Direct inhibition (DI) 1A2 (Phenacetin)
T5 construct: A system of 100 μL human liver microsomes; from tissue; host or cells: human liver microsomes
T5 sequence (P05177 1-516): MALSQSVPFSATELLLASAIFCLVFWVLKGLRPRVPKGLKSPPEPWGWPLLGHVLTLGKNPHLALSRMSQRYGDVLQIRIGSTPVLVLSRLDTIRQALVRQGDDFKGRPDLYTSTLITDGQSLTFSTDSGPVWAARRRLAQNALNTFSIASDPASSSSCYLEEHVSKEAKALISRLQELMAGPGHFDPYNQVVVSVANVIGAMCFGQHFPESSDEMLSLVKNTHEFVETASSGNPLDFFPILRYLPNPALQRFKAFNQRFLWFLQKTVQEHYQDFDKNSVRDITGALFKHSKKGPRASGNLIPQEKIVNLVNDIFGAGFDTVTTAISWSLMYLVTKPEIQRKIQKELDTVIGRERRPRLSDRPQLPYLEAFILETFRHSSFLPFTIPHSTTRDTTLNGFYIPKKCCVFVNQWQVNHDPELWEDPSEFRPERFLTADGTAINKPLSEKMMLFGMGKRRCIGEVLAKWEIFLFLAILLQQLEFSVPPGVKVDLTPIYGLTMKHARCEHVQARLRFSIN
Experimental: as §5, §6

CYP2C19 = target: T6, CYP2C19 (Homo sapiens, UniProt P33261); test: Direct inhibition (DI) of CYP2C19 in human liver microsomes; assay type: in vitro ADME; conditions: probe Mephenytoin, human liver microsomes 0.2 mg/mL, 10 μM compound, read-out: Direct inhibition (DI) 2C19 (Mephenytoin)
T6 construct: A system of 100 μL human liver microsomes; from tissue; host or cells: human liver microsomes
T6 sequence (P33261 whole entry): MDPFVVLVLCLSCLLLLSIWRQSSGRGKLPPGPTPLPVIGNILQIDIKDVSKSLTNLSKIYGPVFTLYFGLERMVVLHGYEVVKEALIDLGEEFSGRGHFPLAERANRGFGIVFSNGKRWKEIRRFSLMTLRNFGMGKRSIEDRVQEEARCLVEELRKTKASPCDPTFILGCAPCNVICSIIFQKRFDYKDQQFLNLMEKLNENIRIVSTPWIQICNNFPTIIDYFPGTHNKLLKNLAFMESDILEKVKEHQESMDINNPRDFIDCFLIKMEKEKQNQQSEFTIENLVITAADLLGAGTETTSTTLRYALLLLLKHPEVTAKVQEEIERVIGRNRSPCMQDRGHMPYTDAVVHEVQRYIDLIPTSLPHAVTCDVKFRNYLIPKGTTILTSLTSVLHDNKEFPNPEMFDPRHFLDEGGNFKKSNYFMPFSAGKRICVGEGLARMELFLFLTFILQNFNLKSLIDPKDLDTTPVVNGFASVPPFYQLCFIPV
Experimental: as §5, §6

[3] = probe Midazolam, read-out: Direct inhibition (DI) 3A4 (Midazolam)
[4] = probe Testosterone, read-out: Direct inhibition (DI) 3A4 (testosterone)

IC50 (ErbB2 kinase) | IC50 (EGFR kinase) | IC50 [1] | IC50 [2] | inhibition at 20 min, 10 µM (CYP3A4; [3]) | inhibition at 20 min, 10 µM (CYP3A4; [4]) | inhibition at 20 min, 10 µM (CYP2D6) | inhibition at 20 min, 10 µM (CYP2C9) | inhibition at 20 min, 10 µM (CYP1A2) | inhibition at 20 min, 10 µM (CYP2C19) | Structure (SMILES)
0.513 nM | 0.358 nM | 1.58 nM | 2.1 nM | 12% | 23% | 4% | 4% | 5% | 8% | CCOc1cc2ncnc(Nc3ccc(Oc4cc5nncn5cn4)c(C)c3)c2cc1NC(=O)/C=C/[C@H]1CCCN1C [Final product of Embodiment 18, (R,E)-N-(4-((4-([1,2,4]triazolo[4,3-c]pyrimidin-7-yloxy)-3-methylphenyl)amino)-7-ethoxyquinazolin-6-yl)-3-(1-methylpyrrolidin-2-yl)acrylamide]
0.716 nM | 3.97 nM | 28.4 nM | 26 nM | 16% | 38% | 60% | < 0% | 7% | < 0% | Cc1cc(Nc2ncnc3ccc(NC(=O)/C=C/[C@H]4CCCN4)cc23)ccc1Oc1ccn2ncnc2c1 [Final product of Embodiment 19, (R,E)-N-(4-((4-([1,2,4]triazolo[1,5-a]pyridin-7-yloxy)-3-methylphenyl)amino)quinazolin-6-yl)-3-(pyrrolidin-2-yl)acrylamide]
0.584 nM | 3.93 nM | 2.07 nM | 3.23 nM | 0% | 14% | 61% | < 0% | 6% | 7% | Cc1cc(Nc2ncnc3ccc(NC(=O)/C=C/[C@H]4CCCN4C)cc23)ccc1Oc1ccn2ncnc2c1 [Final product of Embodiment 20, (R,E)-N-(4-((4-([1,2,4]triazolo[1,5-a]pyridin-7-yloxy)-3-methylphenyl)amino)quinazolin-6-yl)-3-(1-methylpyrrolidin-2-yl)acrylamide]

The remaining lines, values behind:

Structure (SMILES) | IC50 (ErbB2 kinase) | IC50 (EGFR kinase) | IC50 [1] | IC50 [2] | inhibition at 20 min, 10 µM (CYP3A4; [3]) | inhibition at 20 min, 10 µM (CYP3A4; [4]) | inhibition at 20 min, 10 µM (CYP2D6) | inhibition at 20 min, 10 µM (CYP2C9) | inhibition at 20 min, 10 µM (CYP1A2) | inhibition at 20 min, 10 µM (CYP2C19)
Cc1cc(Nc2ncnc3ccc(NC(=O)/C=C/[C@H]4CCCN4C)cc23)ccc1Oc1ccc2nccn2n1 [Final product of Embodiment 10] | 1.34 nM | 4.62 nM | 3.52 nM | 4.56 nM | 12% | 29% | 46% | < 0% | 14% | 9%
Cc1cc(Nc2ncnc3ccc(NC(=O)/C=C/[C@H]4CCCN4C)cc23)ccc1Oc1ccn2ccnc2c1 [Final product of Embodiment 11, (R,E)-N-(4-((4-(imidazo[1,2-a]pyridin-7-yloxy)-3-methylphenyl)amino)quinazolin-6-yl)-3-(1-methylpyrrolidin-2-yl)acrylamide] | 0.73 nM | 1.02 nM | 3.18 nM | 3.27 nM | 5% | 16% | 87% | 9% | 9% | 26%
Cc1cc(Nc2ncnc3ccc(NC(=O)/C=C/[C@H]4CCCN4C)cc23)ccc1Oc1ccn2ncnc2n1 [Final product of Embodiment 12, (R,E)-N-(4-((4-([1,2,4]triazolo[1,5-a]pyrimidin-5-yloxy)-3-methylphenyl)amino)quinazolin-6-yl)-3-(1-methylpyrrolidin-2-yl)-acrylamide] | 0.99 nM | 0.42 nM | 4.19 nM | 4.01 nM | < 0% | 4% | 77% | 5% | 2% | 13%
CCOc1cc2ncnc(Nc3ccc(Oc4cc5nncn5cn4)c(C)c3)c2cc1NC(=O)/C=C/[C@H]1CCCN1 [Final product of Embodiment 17, (R,E)-N-(4-((4-([1,2,4]triazolo[4,3-c]pyrimidin-7-yloxy)-3-methylphenyl)amino)-7-ethoxyquinazolin-6-yl)-3-(pyrrolidin-2-yl)acrylamide] | 0.488 nM | 0.251 nM | 4.97 nM | 5.31 nM | 17% | 34% | 4% | 8% | 3% | 9%
